From patent US20140127136A1, “LIPOSOMES USEFUL FOR DRUG DELIVERY TO THE BRAIN” (Merrimack Pharmaceuticals, Inc., priority 2004, published 2014)
“And” between values parts separate entries of the source, which are not always exact repeats. Equal entries are not always repeated. Structures can show the parent of a compound that is named as a salt. Where two headings read alike, the source gives them in different places.

Key:
[1] = tested on: MDA-MB-468 EGFR-overexpressing human breast cancer cells; test: Cytotoxicity of free, liposomal and anti-EGFR-immunoliposomal 6-APE; format: cell-based; conditions: 6 hours exposure, 3 days post-incubation
[2] = tested on: MCF-7 human breast cancer cells with low EGFR expression; test: as above; format: cell-based; conditions: 6 hours exposure, 3 days post-incubation
[3] = tested on: HER2-overexpressing human breast carcinoma cells (BT-474); test: MTT cytotoxicity of 6-APE formulations; conditions: 6 hours exposure, 3 days post-incubation
[4] = cited from earlier work; for pKa: aqueous solution, ambient temperature, conjugated amine base, value (I) where two are given
[5] = tested on: human breast carcinoma BT-474 xenografts; test: Antitumor efficacy of CPT-11 liposomes (TEA-Pn) against breast cancer xenografts in nude mice; format: in vivo, NCR nu/nu mice; conditions: 50 mg CPT-11/kg i.v. on days 14, 18, 21, 25
[6] = tested on: subcutaneous xenografts of human colon carcinoma (HT-29); test: Antitumor activity of free and liposomal CPT-11 against HT-29 xenografts; format: in vivo, NCR nu/nu athymic nude mice; conditions: 50 mg/kg per injection
[7] = MTD seeking study of CPT-11 formulations, single i.v. injection; format: in vivo, Swiss Webster mice
[8] = Toxicity of free and liposomal irinotecan following CED delivery into the brain; format: in vivo, rats; conditions: for brain tissue toxicity 60 days after CED: single 20 μl CED infusion
Description: Ls-CPT-11 was prepared and the CED procedure used were described in Example 68. To evaluate toxicity, healthy rats received a single infusion of free, i.e., dissolved, or Ls-CPT-11 via CED. […] Rats were euthanized 60 days after CED treatments, and their brains were harvested, sectioned and stained for standard pathology xamination.
No systemic toxicities, including weight loss or diarrhea, were observed following CED of any of the treatments. Furthermore, no gross neurologic or behavioral changes were noted post-treatment. Indeed, no dose-limiting toxicities for nanoliposomal CPT-11 were identified up to 1.6 mg/rat in a single 0.02 mL infusion, which represented the highest dose achieved without further concentrationg the liposomal sample.

[9] = mouse, 0.1 mg/ml
[10] = in vivo; conditions: Sprague-Dawley, rat, brain, other: CED infusion into the brain, 0.06 mg
[11] = Pharmacokinetics of irinotecan formulations administered by CED into normal brain tissue; conditions: 3 mg/ml
[12] = tested on: orthotopic U87 tumors; conditions: 60 μg (3 mg/ml), single CED 5 d after implantation
[13] = tested on: SKBr-3 cells; test: MTT cytotoxicity of Topotecan formulations (TEA-Pn); format: cell-based; conditions: Homo sapiens, SK-BR-3, read-out: IC50 (drug dose resulting in 50% growth inhibition), 4-6 hours exposure, 4 days post-incubation
[14] = Stability and plasma pharmacokinetics of liposomal and F5-immunoliposomal Topotecan in mice; format: in vivo, Swiss Webster mice; conditions: mouse plasma, 1 hour post i.v. injection, 5 mg/kg
Description: Topotecan liposomes containing radioactive lipid label [^3H]-CHE at 1.5 mCi/mmol of phospholipid were prepared according to Examples 11 and 19 using an ethanol lipid solution mixing-extrusion procedure under the following conditions: gradient-forming salt solution: 0.643 N triethylammonium sucrose octasulfate; polycarbonate membrane extrusion: 15 passages through 2 stacked PCTE filters, 80 nm pore size; Topotecan loading: drug/phospholipid input ratio 350 mg/mmol (calculated for Topotecan free base); F5 scFv conjugation was performed as described in Example 19. The liposomes had the following characteristics:
The study was performed generally as in Example 22. […] At 1 hour, 8 hour, or 24 hour post injection time points, 3 animals per time point were exsanguinated via open heart punction under Ketamine/Xylazine anesthesia, the blood was collected into tubes containing PBS-EDTA, and assayed for Topotecan (fluorometry) and liposome lipid (by radioactivity scintillation counting). […] The amount of drug remaining encapsulated in the liposomes at each time point was calculated for each animal individually by comparing drug/lipid radioactivity ratio of the plasma samples with that of the injected liposomes. […]

[15] = Animal body weights in the BT-474 Topotecan MTD-fraction study; format: in vivo, nude mice; conditions: at MTD, i.v. at day 19, 23, 27
From the text: The control group received injections of physiological saline. […] There was no significant difference in efficacy between free and liposomal drug given at their respective MTD or at identical fractions (½, ¼, or ⅛) thereof.

[16] = tested on: U87MG intracranial glioblastoma xenograft; test: Therapeutic efficacy of liposomal topotecan by CED against intracranial glioma xenografts; format: in vivo, athymic rats; conditions: CED 20 μl, 0.5 mg/ml, 7 days after tumor implantation
Description: Twenty one athymic rats received the implantation of U87MG tumor cells (5×10^5 cells/10 μl HBSS) into their right striatum and were divided randomly into three groups. Under deep isofluorane anesthesia, rats were placed in a small-animal stereotaxic frame (David Kopf Instruments, Tujunga, Calif.). […] After 2 min, another 5 μl was injected at a depth of 4 mm. After an additional 2 min, the needle was removed and the wound was closed with sutures.
All control rats and rats treated with free TPT developed neurological symptoms around day 17-26 due to large intracranial tumors that were confirmed by histology.
To evaluate the treatment of larger tumors, the U87MG intracranial model was developed in 12 rats. However, in this experiment CED was performed 12 days after tumor implantation (FIG. 48B). […] Therefore, to achieve proper coverage of the tumor, there is the need for guided and image-monitored administration of the liposomal drug.

[17] = in vivo; conditions: Sprague-Dawley, rat, brain, other: CED infusion into the brain, 0.01 mg
[18] = Brain tissue pharmacokinetics of free and liposomal topotecan delivered by CED
[19] = Maximum tolerated dose of free and liposomal Topotecan, 3 weekly i.v. injections; conditions: female, Swiss-Webster, mouse, in vivo, iv
[20] = tested on: subcutaneous xenograft tumors of BT-474 human breast carcinoma; test: Antitumor efficacy of non-targeted and HER2-targeted liposomal vincristine; format: in vivo, nude mice; conditions: 2 mg VCR/kg weekly i.v. for three weeks
[21] = tested on: HER2-overexpressing human non-small cell lung carcinoma cells CaLu-3; conditions: MTT
[22] = tested on: HT-29 human colon carcinoma xenografts; conditions: 5 mg/kg i.v. every three days, four injections
[23] = LD50 of triethylammonium sulfate compared with doxorubicin; conditions: in vivo
[24] = inj. dose 60 mg/kg, single i.v., individual mice, hydrochloride, 60 mg/kg
[25] = inj. dose 70 mg/kg, single i.v., individual mice, hydrochloride, 70 mg/kg
[26] = inj. dose 80 mg/kg, single i.v., individual mice, hydrochloride, 80 mg/kg
[27] = rat brain tissue, CED 20 μl, 0.5 mg/ml

With 6-(3-aminopropyl)ellipticine [free APE] the IC50 [1] was “about 0.1 μg/ml”, the IC50 [2] was “about 0.5 μg/ml” and the IC50 [3] was 0.26 μg APE/ml.
In the case of CC(C)(N)CO [2-amino-2-methylpropanol], the pKa [4] is listed as 9.69.
In the case of CC(C)N [Isopropylamine], the pKa [4] is listed as 10.53.
For CN1CCN(C)CC1 [N,N′-dimethylpiperazine], the pKa [4] is listed as 9.66 and the “pKa (II)” value ([4]; second ammonium group) is listed as 5.2.
For OCCN1CCOCC1 [N-hydroxyethylmorpholine], the pKa [4] is given as 7.39.
In the case of OCCN1CCCC1 [N-hyrdoxyethylpyrrolidine], the pKa [4] is listed as 9.44.
For CN1CCCCC1 [N-methylpiperidine], the pKa [4] is given as 10.38.
For NC1CCCCC1 [cyclohexylamine], the pKa [4] is given as 10.66.
In the case of C1CCC(NC2CCCCC2)CC1 [dicyclohexylamine], the pKa [4] is given as 10.4.
For CCN(C)CC [diethylmethylamine], the pKa [4] is listed as 10.35.
In the case of CCCN(C)C [dimethylpropylamine], the pKa [4] is given as 10.15.
With CCc1c2c(nc3ccc(OC(=O)N4CCC(N5CCCCC5)CC4)cc13)-c1cc3c(c(=O)n1C2)COC(=O)[C@]3(O)CC [free CPT-11, Irinotecan hydrochloride] the “average tumor size at day 46” value [5] was “about 1,000 mm^3”, the “effect on tumor growth” value [5] was “reduced the rate of tumor growth” and the “animals tumor-free at the end of study without signs of regrowth” value [6] was “no animals without tumor regrowth”. For the same molecule, the “effect on the tumor growth” value [6] was “only minor effect on the tumor growth”, the “Average tumor doubling time” value ([6]; 4 i.v. injections at intervals of 4 days) was 4.8 days and the MTD at 7 days ([7]; Swiss Webster, mouse, in vivo, iv, acute, single i.v. injection, mice) was 80 mg/kg. The “Animal body weight at day 1 post injection” value [7, 24] was 20.4 g and 19.1 g and 20.0 g and 18.7 g, the “Animal body weight at day 2 post injection” value [7, 24] was 20.9 g and 19.4 g and the “Animal body weight at day 4 post injection” value [7, 24] was 22.1 g and 20.2 g. For the same molecule, the “Animal body weight at day 6 post injection” value [7, 24] was 22.2 g and 20.4 g, the “Animal body weight at day 11 post injection” value [7, 24] was 22.5 g and 21.1 g and the “Animal body weight at day 1 post injection” value [7, 25] was 20.0 g and 21.8 g. The “Animal body weight at day 2 post injection” value [7, 25] was 20.6 g and 22.4 g, the “Animal body weight at day 1 post injection” value [7, 26] was 19.9 g and 20.8 g and the “Animal body weight at day 2 post injection” value [7, 26] was 20.1 g and 21.1 g. The “Animal body weight at day 3 post injection” value [7, 26] was 19.3 g and 20.6 g (2×) and 21.4 g and 21.9 g, the outcome after injection ([7]; inj. dose 90 mg/kg, single i.v., individual mice) was “died 1-2 min after injection” and the outcome after injection ([7]; inj. dose 100 mg/kg, single i.v., individual mice) was “died 1-2 min after injection”. The “brain tissue toxicity 60 days after CED” value ([8]; 60 μg) was “no apparent tissue toxicity”, the “brain tissue toxicity 60 days after CED” value ([8]; 0.4 mg/rat) was “extensive tissue necrosis within the CNS” and the highest tolerable dose ([8]; CED into rat brain) was 60 μg/infusion. For the same molecule, the “weight loss during treatment, % of pre-treatment value” (50 mg/kg per injection (free: permanent; liposomal: transient)) was “about 6%”, the “condition after drug injection” value (50 mg/kg, for about one hour after injection) was “temporary morbidity” and the “CPT-11, % carboxylate” value ([9]; 2 h) was 35.2 ± 1.9%. For the same molecule, the “CPT-11, % lactone” value ([9]; 2 h) was 1.9 ± 0.4%, the “SN-38, % carboxylate” value ([9]; 2 h) was 58.4 ± 2.1% and the “SN-38, % lactone” value ([9]; 2 h) was 4.4 ± 0.1%. The “CPT-11, % carboxylate” value ([9]; 12 h) was 11.5 ± 0.9%, the “CPT-11, % lactone” value ([9]; 12 h) was less than 0.1% and the “SN-38, % carboxylate” value ([9]; 12 h) was 78.6 ± 1.3%. The “SN-38, % lactone” value ([9]; 12 h) was 9.9 ± 0.8%, the “CPT-11, % carboxylate” value ([9]; 24 h) was less than 0.1% and the “CPT-11, % lactone” value ([9]; 24 h) was less than 0.1%. The “SN-38, % carboxylate” value ([9]; 24 h) was 77.5 ± 9.8%, the MRT [10] was 9.6 h and the “AUC∞” value [11] was 16.4 µg·days/g. The Median survival [12] was 28.5 days.
For CC[C@@]1(O)C(=O)OCc2c1cc1n(c2=O)Cc2cc3c(CN(C)C)c(O)ccc3nc2-1 [free Topotecan, Topotecan Hydrochloride], the IC50 [13] was greater than 30 µg/mL, the “Drug, % of injected dose” value [14] was “less than 1%” and the “transient decrease in body weight, % of the pre-treatment value” [15] was “about 15%”. For the same molecule, the “survival / anti-tumor effect” value [16] was “no survival benefits”, the MRT [17] was 2.4 h and the half-life [17] was 2.4 h. For the same molecule, the “AUC∞” value [18, 27] was 2.8 µg·days/g, the “CL” value [18, 27] was 3.6 g/day and the “persistence in brain tissue post CED (detected as long as / completely cleared within)” value ([18]; rat brain, CED) was no more than 1 days. For the same molecule, the MTD at 3 once-a-week injections [19] was 18.4 mg/kg and the MTD at 10 days [19] was 11.7 to 21 mg/kg.
In the case of CC[C@]1(O)C[C@H]2CN(CCc3c([nH]c4ccccc34)[C@@](C(=O)OC)(c3cc4c(cc3OC)N(C=O)[C@H]3[C@@](O)(C(=O)OC)[C@H](OC(C)=O)[C@]5(CC)C=CCN6CC[C@]43[C@@H]65)C2)C1 [free VCR, vincristine sulfate], the comparative efficacy [20] is reported as “less effective than either F5-ILs-VCR or Ls-VCR-Cit”.
In the case of CCC1=C[C@@H]2CN(C1)Cc1c([nH]c3ccccc13)[C@@](C(=O)OC)(c1cc3c(cc1OC)N(C)[C@H]1[C@@](O)(C(=O)OC)[C@H](OC(C)=O)[C@]4(CC)C=CCN5CC[C@]31[C@@H]54)C2.O=C(O)C(O)C(O)C(=O)O.O=C(O)C(O)C(O)C(=O)O [free VRB, vinorelbine bitartrate], the IC50 [21] is reported as 1.2 µg/mL and the “effect on tumor growth” value [22] is reported as “the tumors always continued to grow”.
For c1c[nH]cn1 [imidazole], the pKa [4] is given as 7.03.
In the case of CC(C)(C)N [tert-butylamine], the pKa [4] is listed as 10.68.
With triethylammonium sulfate the “LD50 relative to the LD50 of doxorubicin” value [23] was “about 40 times”.
